Measurements reported in ChEMBL document CHEMBL2401706, “An atom economic synthesis and AChE inhibitory activity of novel dispiro 7-aryltetrahydro-1H-pyrrolo[1,2-c][1,3]thiazole and 4-aryloctahydroindolizine N-methylpiperidin-4-one hybrid heterocycles” (Eur J Med Chem, 2013).

Biological target: Acetylcholinesterase (Electrophorus electricus, UniProt O42275)
Assay: Inhibition of electric eel AChE after 30 mins by Ellman's method

Chain of Acetylcholinesterase (O42275 whole entry): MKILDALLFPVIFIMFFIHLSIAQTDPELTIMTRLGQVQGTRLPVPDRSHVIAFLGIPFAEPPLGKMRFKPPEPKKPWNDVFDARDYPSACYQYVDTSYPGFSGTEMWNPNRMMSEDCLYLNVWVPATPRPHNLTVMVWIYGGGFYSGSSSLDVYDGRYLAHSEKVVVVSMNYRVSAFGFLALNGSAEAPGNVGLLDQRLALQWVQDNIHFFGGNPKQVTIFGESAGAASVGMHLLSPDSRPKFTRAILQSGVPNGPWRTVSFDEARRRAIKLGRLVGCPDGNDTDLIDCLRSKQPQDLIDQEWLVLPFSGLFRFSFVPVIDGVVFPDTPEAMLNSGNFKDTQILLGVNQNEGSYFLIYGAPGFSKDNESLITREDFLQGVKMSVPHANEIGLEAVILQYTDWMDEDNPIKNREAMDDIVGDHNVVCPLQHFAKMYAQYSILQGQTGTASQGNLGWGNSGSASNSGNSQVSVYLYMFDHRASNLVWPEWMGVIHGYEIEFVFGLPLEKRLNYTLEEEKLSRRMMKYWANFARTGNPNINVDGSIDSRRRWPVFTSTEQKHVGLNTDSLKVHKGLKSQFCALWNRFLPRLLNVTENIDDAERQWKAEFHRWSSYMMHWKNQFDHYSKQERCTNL

SMILES	IC50
CN1C/C(=C\c2ccccc2F)C(=O)[C@]2(C1)[C@@H](c1ccccc1F)[C@@H]1CCCCN1[C@@]21C(=O)c2cccc3cccc1c23	34.2 µM
COc1ccccc1/C=C1\CN(C)C[C@@]2(C1=O)[C@@H](c1ccccc1OC)[C@@H]1CCCCN1[C@@]21C(=O)c2cccc3cccc1c23	11.6 µM
CN1C/C(=C\c2ccccc2Br)C(=O)[C@]2(C1)[C@@H](c1ccccc1Br)[C@@H]1CCCCN1[C@@]21C(=O)c2cccc3cccc1c23	38.3 µM
CN1C/C(=C\c2cccc(F)c2)C(=O)[C@]2(C1)[C@@H](c1cccc(F)c1)[C@@H]1CCCCN1[C@@]21C(=O)c2cccc3cccc1c23	32.6 µM
CN1C/C(=C\c2cccc([N+](=O)[O-])c2)C(=O)[C@]2(C1)[C@@H](c1cccc([N+](=O)[O-])c1)[C@@H]1CCCCN1[C@@]21C(=O)c2cccc3cccc1c23	25.1 µM
CN1C/C(=C\c2cccc(Cl)c2Cl)C(=O)[C@]2(C1)[C@@H](c1cccc(Cl)c1Cl)[C@@H]1CCCCN1[C@@]21C(=O)c2cccc3cccc1c23	24.2 µM
CN1C/C(=C\c2ccc(Cl)cc2Cl)C(=O)[C@]2(C1)[C@@H](c1ccc(Cl)cc1Cl)[C@@H]1CCCCN1[C@@]21C(=O)c2cccc3cccc1c23	17.3 µM
CN1C/C(=C\c2cccc3ccccc23)C(=O)[C@]2(C1)[C@@H](c1cccc3ccccc13)[C@@H]1CCCCN1[C@@]21C(=O)c2cccc3cccc1c23	3.34 µM
CN1C/C(=C\c2cccc3ccccc23)C(=O)[C@]2(C1)[C@@H](c1cccc3ccccc13)[C@@H]1CSCN1[C@@]21C(=O)c2cccc3cccc1c23	9.48 µM
CN1C/C(=C\c2ccccc2)C(=O)[C@]2(C1)[C@@H](c1ccccc1)[C@@H]1CCCCN1[C@@]21C(=O)c2cccc3cccc1c23	18.3 µM
CN1C/C(=C\c2ccc(Cl)cc2)C(=O)[C@]2(C1)[C@@H](c1ccc(Cl)cc1)[C@@H]1CCCCN1[C@@]21C(=O)c2cccc3cccc1c23	11.6 µM
Cc1ccc(/C=C2\CN(C)C[C@@]3(C2=O)[C@@H](c2ccc(C)cc2)[C@@H]2CCCCN2[C@@]32C(=O)c3cccc4cccc2c34)cc1	2.24 µM
COc1ccc(/C=C2\CN(C)C[C@@]3(C2=O)[C@@H](c2ccc(OC)cc2)[C@@H]2CCCCN2[C@@]32C(=O)c3cccc4cccc2c34)cc1	22.3 µM
CN1C/C(=C\c2ccc(F)cc2)C(=O)[C@]2(C1)[C@@H](c1ccc(F)cc1)[C@@H]1CCCCN1[C@@]21C(=O)c2cccc3cccc1c23	12.6 µM
CN1C/C(=C\c2ccc(Br)cc2)C(=O)[C@]2(C1)[C@@H](c1ccc(Br)cc1)[C@@H]1CCCCN1[C@@]21C(=O)c2cccc3cccc1c23	14.1 µM
CN1C/C(=C\c2ccc([N+](=O)[O-])cc2)C(=O)[C@]2(C1)[C@@H](c1ccc([N+](=O)[O-])cc1)[C@@H]1CCCCN1[C@@]21C(=O)c2cccc3cccc1c23	9.16 µM
CN1C/C(=C\c2ccccc2Cl)C(=O)[C@]2(C1)[C@@H](c1ccccc1Cl)[C@@H]1CCCCN1[C@@]21C(=O)c2cccc3cccc1c23	21.3 µM

SMILES	IC50
Cc1ccccc1/C=C1\CN(C)C[C@@]2(C1=O)[C@@H](c1ccccc1C)[C@@H]1CCCCN1[C@@]21C(=O)c2cccc3cccc1c23	3.86 µM
CN1C/C(=C\c2ccc(F)cc2)C(=O)[C@]2(C1)[C@@H](c1ccc(F)cc1)[C@@H]1CSCN1[C@@]21C(=O)c2cccc3cccc1c23	15.8 µM
CN1C/C(=C\c2ccc(Br)cc2)C(=O)[C@]2(C1)[C@@H](c1ccc(Br)cc1)[C@@H]1CSCN1[C@@]21C(=O)c2cccc3cccc1c23	20.3 µM
CN1C/C(=C\c2ccc([N+](=O)[O-])cc2)C(=O)[C@]2(C1)[C@@H](c1ccc([N+](=O)[O-])cc1)[C@@H]1CSCN1[C@@]21C(=O)c2cccc3cccc1c23	4.56 µM
CN1C/C(=C\c2ccccc2Cl)C(=O)[C@]2(C1)[C@@H](c1ccccc1Cl)[C@@H]1CSCN1[C@@]21C(=O)c2cccc3cccc1c23	12.2 µM
Cc1ccccc1/C=C1\CN(C)C[C@@]2(C1=O)[C@@H](c1ccccc1C)[C@@H]1CSCN1[C@@]21C(=O)c2cccc3cccc1c23	6.28 µM
CN1C/C(=C\c2ccccc2F)C(=O)[C@]2(C1)[C@@H](c1ccccc1F)[C@@H]1CSCN1[C@@]21C(=O)c2cccc3cccc1c23	12.6 µM
CN1C/C(=C\c2ccccc2Br)C(=O)[C@]2(C1)[C@@H](c1ccccc1Br)[C@@H]1CSCN1[C@@]21C(=O)c2cccc3cccc1c23	10.1 µM
CN1C/C(=C\c2cccc(F)c2)C(=O)[C@]2(C1)[C@@H](c1cccc(F)c1)[C@@H]1CSCN1[C@@]21C(=O)c2cccc3cccc1c23	11.2 µM
CN1C/C(=C\c2cccc([N+](=O)[O-])c2)C(=O)[C@]2(C1)[C@@H](c1cccc([N+](=O)[O-])c1)[C@@H]1CSCN1[C@@]21C(=O)c2cccc3cccc1c23	8.1 µM
CN1C/C(=C\c2cccc(Cl)c2Cl)C(=O)[C@]2(C1)[C@@H](c1cccc(Cl)c1Cl)[C@@H]1CSCN1[C@@]21C(=O)c2cccc3cccc1c23	19.1 µM
CN1C/C(=C\c2ccc(Cl)cc2Cl)C(=O)[C@]2(C1)[C@@H](c1ccc(Cl)cc1Cl)[C@@H]1CSCN1[C@@]21C(=O)c2cccc3cccc1c23	23.2 µM
CN1C/C(=C\c2ccccc2)C(=O)[C@]2(C1)[C@@H](c1ccccc1)[C@@H]1CSCN1[C@@]21C(=O)c2cccc3cccc1c23	16.5 µM
CN1C/C(=C\c2ccc(Cl)cc2)C(=O)[C@]2(C1)[C@@H](c1ccc(Cl)cc1)[C@@H]1CSCN1[C@@]21C(=O)c2cccc3cccc1c23	11.1 µM
Cc1ccc(/C=C2\CN(C)C[C@@]3(C2=O)[C@@H](c2ccc(C)cc2)[C@@H]2CSCN2[C@@]32C(=O)c3cccc4cccc2c34)cc1	1.86 µM
COc1ccc(/C=C2\CN(C)C[C@@]3(C2=O)[C@@H](c2ccc(OC)cc2)[C@@H]2CSCN2[C@@]32C(=O)c3cccc4cccc2c34)cc1	12.3 µM
